Patent US11000033B2, “Ketone or oxime compound, and herbicide” (NISSAN CHEMICAL CORPORATION, priority 2014, dated 2021)

Experiments:
Format in all cases: in vivo
Scirpus juncoides [1] = assay: Test Example 1: herbicidal activity, application before weed generation in submerged conditions (symbol B); settings: application herbicide amount 320 g/ha
Outline: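 Compound emulsion was diluted to a set herbicide amount and applied to the water surface on the sowing day, into submerged (4 cm) alluvial-soil pots sown with mixed weed seeds and transplanted 2.5-leaf rice. Pots were held in a 25–30 °C greenhouse, and weeds were scored 0–5 by herbicidal ratio after 3 weeks.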

Scirpus juncoides [2] = assay: Test Example 2: herbicidal activity, application during weed generation in submerged conditions (symbol B); settings: Table 23; application herbicide amount 320 g/ha; grade 0-5 by criteria of Test Example 1
Outline: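 Each pot contained alluvial soil under 4 cm of water with seeds of all three weeds sown together. Following growth at 25° C. to 30° C. to the one- to two-leaf stage, the floodwater received diluted emulsion at a predetermined amount; visual assessment followed at 3 weeks.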

[3] = test system: Echinochloa crus-galli var. crus-galli; assay: Test Example 4: herbicidal effect by soil treatment (symbol H); settings: application herbicide amount 320 g/ha
Outline: (§1)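 Seeds were sown in sterilized diluvial soil, covered with about 1.5 cm of soil, and the soil surface was sprayed with a water-diluted emulsion of the compound at a predetermined rate. Plants grew in a greenhouse at 25° C. to 30° C.; effects were scored visually 3 weeks after application.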

Avena fatua [4] = assay: Test Example 4: herbicidal effect by soil treatment (symbol I); settings: application herbicide amount 320 g/ha
Outline: as §1

Apera spica-venti [5] = assay: Test Example 4: herbicidal effect by soil treatment (symbol L); settings: application herbicide amount 320 g/ha
Outline: as §1

Amaranthus retroflexus = assay: Test Example 4: herbicidal effect by soil treatment (symbol N); settings: application herbicide amount 320 g/ha
Outline: as §1

Galium spurium [6] = assay: Test Example 4: herbicidal effect by soil treatment (symbol Q); settings: application herbicide amount 320 g/ha
Outline: as §1

wheat = assay: Test Example 4: effect on crop by soil treatment (symbol e); settings: application herbicide amount 320 g/ha
Outline: (§2)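 Steps: fill box with sterilized diluvial soil; sow seed spot-like; cover with ~1.5 cm soil; grow in greenhouse (25° C. to 30° C.).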

beet [7] = assay: Test Example 4: effect on crop by soil treatment (symbol f); settings: application herbicide amount 320 g/ha
Outline: as §2

rapeseed = assay: Test Example 4: effect on crop by soil treatment (symbol g); settings: application herbicide amount 320 g/ha
Outline: as §2

Setaria viridis = assay: Test Example 5: herbicidal effect by foliage application, plastic box (symbol G); settings: 320 g/ha, 3 weeks after application
Outline: (§3)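 Visual herbicidal score, taken three weeks post-application, of seedlings sprayed on the foliage with water-diluted emulsion at a predetermined amount; plants were 14 days old, greenhouse-raised at 25° C. to 30° C.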

Avena fatua [8] = assay: Test Example 5: herbicidal effect by foliage application, plastic box (symbol I); settings: 320 g/ha, 3 weeks after application
Outline: as §3

Apera spica-venti [9] = assay: Test Example 5: herbicidal effect by foliage application, plastic box (symbol L); settings: 320 g/ha, 3 weeks after application
Outline: as §3

Chenopodium album = assay: Test Example 5: herbicidal effect by foliage application, plastic box (symbol O); settings: 320 g/ha, 3 weeks after application
Outline: as §3

Galium spurium [10] = assay: Test Example 5: herbicidal effect by foliage application, plastic box (symbol Q); settings: 320 g/ha, 3 weeks after application
Outline: as §3

Veronica persica = assay: Test Example 5: herbicidal effect by foliage application, plastic box (symbol R); settings: 320 g/ha, 3 weeks after application
Outline: as §3

soybean = assay: Test Example 5: effect on crop by foliage application, plastic box (symbol d); settings: 320 g/ha, 3 weeks after application
Outline: (§4)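 A greenhouse held between 25° C. and 30° C. was used to grow plants sown spot-wise, beneath ~1.5 cm of soil, in boxes of sterilized diluvial soil.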

beet [11] = assay: Test Example 5: effect on crop by foliage application, plastic box (symbol f); settings: 320 g/ha, 3 weeks after application
Outline: as §4

Row | SMILES | Herbicidal effect grade, B: Scirpus juncoides (Scirpus juncoides [1]) | Herbicidal effect grade, B: Scirpus juncoides (Scirpus juncoides [2]) | G: Setaria viridis, herbicidal effect grade (Setaria viridis) | I: Avena fatua, herbicidal effect grade (Avena fatua [8]) | L: Apera spica-venti, herbicidal effect grade (Apera spica-venti [9]) | O: Chenopodium album, herbicidal effect grade (Chenopodium album) | Q: Galium spurium, herbicidal effect grade (Galium spurium [10]) | R: Veronica persica, herbicidal effect grade (Veronica persica) | d: soybean, effect on crop grade (soybean) | f: beet, effect on crop grade (beet [11]) | H: Echinochloa crus-galli var. crus-galli, herbicidal effect grade [3] | I: Avena fatua, herbicidal effect grade (Avena fatua [4]) | L: Apera spica-venti, herbicidal effect grade (Apera spica-venti [5]) | N: Amaranthus retroflexus, herbicidal effect grade (Amaranthus retroflexus) | Q: Galium spurium, herbicidal effect grade (Galium spurium [6]) | e: wheat, effect on crop grade (wheat) | f: beet, effect on crop grade (beet [7]) | g: rapeseed, effect on crop grade (rapeseed) | G: Setaria viridis, herbicidal effect (criteria of Test Example 1) (Setaria viridis) | I: Avena fatua, herbicidal effect (criteria of Test Example 1) (Avena fatua [8]) | also measured
1 | COC(=O)CON=C(C)CC1CC(O)=C(c2c(C)cc(C)cc2C)C1=O (stereo not drawn) [1-023] | 0 (Herbicidal ratio of 5% or lower (almost no effect)) | 0 (Herbicidal ratio of 5% or lower (almost no effect)) | 1 (Herbicidal ratio of 5% or higher and lower than 20%) | 1 (Herbicidal ratio of 5% or higher and lower than 20%) | 4 (Herbicidal ratio of 70% or higher and lower than 90%) | 0 (Herbicidal ratio of 5% or lower (almost no effect)) | 2 (Herbicidal ratio of 20% or higher and lower than 40%) | 0 (Herbicidal ratio of 5% or lower (almost no effect)) | 0 (Herbicidal ratio of 5% or lower (almost no effect)) | 0 (Herbicidal ratio of 5% or lower (almost no effect)) |  |  |  |  |  |  |  |  |  |  | H (Echinochloa crus-galli var. crus-galli) herbicidal effect grade [3]: 3 (Herbicidal ratio of 40% or higher and lower than 70%); I (Avena fatua) herbicidal effect grade (Avena fatua [4]): 0 (Herbicidal ratio of 5% or lower (almost no effect)); L (Apera spica-venti) herbicidal effect grade (Apera spica-venti [5]): 4 (Herbicidal ratio of 70% or higher and lower than 90%); N (Amaranthus retroflexus) herbicidal effect grade (Amaranthus retroflexus): 0 (Herbicidal ratio of 5% or lower (almost no effect)); Q (Galium spurium) herbicidal effect grade (Galium spurium [6]): 0 (Herbicidal ratio of 5% or lower (almost no effect)); e (wheat) effect on crop grade (wheat): 0 (Herbicidal ratio of 5% or lower (almost no effect)); f (beet) effect on crop grade (beet [7]): 0 (Herbicidal ratio of 5% or lower (almost no effect)); g (rapeseed) effect on crop grade (rapeseed): 0 (Herbicidal ratio of 5% or lower (almost no effect))
2 | CON=C(C)CC1CC(O)=C(c2c(C)cc(Oc3ccccc3)cc2C)C1=O (stereo not drawn) [6-052] | 1 (Herbicidal ratio of 5% or higher and lower than 20%) | 0 (Herbicidal ratio of 5% or lower (almost no effect)) | 5 (Herbicidal ratio of 90% or more (almost completely withered)) | 2 (Herbicidal ratio of 20% or higher and lower than 40%) | 4 (Herbicidal ratio of 70% or higher and lower than 90%) | 0 (Herbicidal ratio of 5% or lower (almost no effect)) | 0 (Herbicidal ratio of 5% or lower (almost no effect)) | 0 (Herbicidal ratio of 5% or lower (almost no effect)) | 0 (Herbicidal ratio of 5% or lower (almost no effect)) | 0 (Herbicidal ratio of 5% or lower (almost no effect)) | 4 (Herbicidal ratio of 70% or higher and lower than 90%) | 0 (Herbicidal ratio of 5% or lower (almost no effect)) | 5 (Herbicidal ratio of 90% or more (almost completely withered)) | 0 (Herbicidal ratio of 5% or lower (almost no effect)) | 0 (Herbicidal ratio of 5% or lower (almost no effect)) | 0 (Herbicidal ratio of 5% or lower (almost no effect)) | 0 (Herbicidal ratio of 5% or lower (almost no effect)) | 3 (Herbicidal ratio of 40% or higher and lower than 70%) |  |  | 
3 | CON=C(C)CC1CC(O)=C(c2c(C)cc(OC)cc2C)C1=O (stereo not drawn) [6-055] | 1 (Herbicidal ratio of 5% or higher and lower than 20%) | 2 (Herbicidal ratio of 20% or higher and lower than 40%) |  |  |  |  |  |  |  |  | 5 (Herbicidal ratio of 90% or more (almost completely withered)) | 0 (Herbicidal ratio of 5% or lower (almost no effect)) | 5 (Herbicidal ratio of 90% or more (almost completely withered)) | 0 (Herbicidal ratio of 5% or lower (almost no effect)) | 0 (Herbicidal ratio of 5% or lower (almost no effect)) | 0 (Herbicidal ratio of 5% or lower (almost no effect)) | 0 (Herbicidal ratio of 5% or lower (almost no effect)) | 0 (Herbicidal ratio of 5% or lower (almost no effect)) | 5 (Herbicidal ratio of 90% or more (almost completely withered)) | 5 (Herbicidal ratio of 90% or more (almost completely withered)) | L: Apera spica-venti, herbicidal effect (criteria of Test Example 1) (Apera spica-venti [9]): 5 (Herbicidal ratio of 90% or more (almost completely withered)); O: Chenopodium album, herbicidal effect (criteria of Test Example 1) (Chenopodium album): 3 (Herbicidal ratio of 40% or higher and lower than 70%); Q: Galium spurium, herbicidal effect (criteria of Test Example 1) (Galium spurium [10]): 3 (Herbicidal ratio of 40% or higher and lower than 70%); R: Veronica persica, herbicidal effect (criteria of Test Example 1) (Veronica persica): 4 (Herbicidal ratio of 70% or higher and lower than 90%); d: soybean, effect on crop (criteria of Test Example 1) (soybean): 3 (Herbicidal ratio of 40% or higher and lower than 70%); f: beet, effect on crop (criteria of Test Example 1) (beet [11]): 0 (Herbicidal ratio of 5% or lower (almost no effect))
4 | CON=C(C)CC1CC(O)=C(c2c(C)cc(C(C)=NOC)cc2C)C1=O (stereo not drawn) [6-065] | 2 (Herbicidal ratio of 20% or higher and lower than 40%) | 1 (Herbicidal ratio of 5% or higher and lower than 20%) |  |  |  |  |  |  |  |  | 5 (Herbicidal ratio of 90% or more (almost completely withered)) | 4 (Herbicidal ratio of 70% or higher and lower than 90%) | 5 (Herbicidal ratio of 90% or more (almost completely withered)) | 4 (Herbicidal ratio of 70% or higher and lower than 90%) | 4 (Herbicidal ratio of 70% or higher and lower than 90%) | 5 (Herbicidal ratio of 90% or more (almost completely withered)) | 2 (Herbicidal ratio of 20% or higher and lower than 40%) | 3 (Herbicidal ratio of 40% or higher and lower than 70%) | 5 (Herbicidal ratio of 90% or more (almost completely withered)) | 5 (Herbicidal ratio of 90% or more (almost completely withered)) | L: Apera spica-venti, herbicidal effect (criteria of Test Example 1) (Apera spica-venti [9]): 5 (Herbicidal ratio of 90% or more (almost completely withered)); O: Chenopodium album, herbicidal effect (criteria of Test Example 1) (Chenopodium album): 1 (Herbicidal ratio of 5% or higher and lower than 20%); Q: Galium spurium, herbicidal effect (criteria of Test Example 1) (Galium spurium [10]): 3 (Herbicidal ratio of 40% or higher and lower than 70%); R: Veronica persica, herbicidal effect (criteria of Test Example 1) (Veronica persica): 3 (Herbicidal ratio of 40% or higher and lower than 70%); d: soybean, effect on crop (criteria of Test Example 1) (soybean): 1 (Herbicidal ratio of 5% or higher and lower than 20%); f: beet, effect on crop (criteria of Test Example 1) (beet [11]): 3 (Herbicidal ratio of 40% or higher and lower than 70%)
